Data as given in US20110172232A1, “AMINOACYL PRODRUGS AS AN ACTIVE PHARMACEUTICAL INGREDIENT FOR THROMBOEMBOLIC DISORDERS” (Bayers Schering Pharma Aktiengesellschaft, priority 2007, published 2011).

What was measured:
[1] = In vitro stability in human plasma (HPLC detection); format: in vitro ADME; conditions: 37° C., read-out: half-life of degradation with release of the active ingredient compound (A)
Procedure: (§1) c) In Vitro Stability in Rat Plasma and Human Plasma (HPLC Detection):
(§2) 0.5 mg of substance is dissolved in 1 ml of dimethyl sulfoxide/water 1:1. 500 μl of this sample solution are mixed with 500 μl of rat plasma at 37° C. and shaken. A first sample (10 μl) is immediately taken for HPLC analysis. In the period up to 2 h after the start of incubation, further aliquots are taken after 2, 5, 10, 30, 60 and 90 min, and the contents of the respective test substance and of the active ingredient compound (A) liberated therefrom are determined.
(§3) Agilent 1100 with DAD (G1314A), binary pump (G1312A), autosampler (G1329A), column oven (G1316A), thermostat (G1330A); column: Kromasil 100 C18, 250 mm×4.6 mm, 5 μm; column temperature: 30° C.; mobile phase A: water+5 ml of perchloric acid/liter, mobile phase B: acetonitrile.

[2] = Stability in buffer at various pH values (HPLC); format: physicochemical; conditions: buffer pH 4, 37° C., acetonitrile/buffer
Procedure: 0.25 mg of the test substance is weighed into a 2 ml HPLC vial and 0.5 ml of acetonitrile is added. The substance is dissolved by putting the sample vessel in an ultrasonic bath for about 10 seconds. Then 0.5 ml of the respective buffer solution is added, and the sample is again treated in the ultrasonic bath.
pH 4.0:1 liter of Millipore water is adjusted to pH 4.0 with 1 N hydrochloric acid;
pH 7.4: 90 g of sodium chloride, 13.61 g of potassium dihydrogen phosphate and 83.35 g of 1 M sodium hydroxide solution are made up to 1 liter with Millipore water and then diluted 1:10.
10 μl portions of the test solution are analyzed by HPLC for their content of unchanged test substance every hour over a period of 24 hours at 37° C. The percentage areas of the appropriate peaks are used for quantification.
Agilent 1100 with DAD (G1314A), binary pump (G1312A), autosampler (G1329A), column oven (G1316A), thermostat (G1330A); column: Kromasil 100 C18, 125 mm×4 mm, 5 μm; column temperature: 30° C.; mobile phase A: water+5 ml of perchloric acid/liter, mobile phase B: acetonitrile.

[3] = In vitro stability in rat plasma (HPLC detection); format: in vitro ADME; conditions: 37° C., read-out: half-life of degradation with release of the active ingredient compound (A)
Procedure: as §1, §2, §3

In the case of CCCCNCCCC(=O)N(C[C@H]1CN(c2ccc(N3CCOCC3=O)cc2F)C(=O)O1)C(=O)c1ccc(Cl)s1 [Example 22, N-[4-(Butylamino)butanoyl]-5-chloro-N-({(5S)-2-oxo-3-[2-fluoro-4-(3-oxomorpholin-4-yl)phenyl]-1,3-oxazolidin-5-yl}methyl)thiophene-2-carboxamide], the half-life at 0.25 mg/mL [1] is reported as < 2 min, the “time stable in solution at pH 4” value [2] is reported as “more than 16 h” and the half-life at 0.25 mg/mL [3] is reported as < 2 min.
